Measurements reported in patent US20220192984A1, “PHARMACEUTICAL COMPOSITIONS COMPRISING OTIC THERAPEUTIC AGENTS AND RELATED METHODS” (Frequency Therapeutics, Inc., priority 2018, published 2022).
Like-named read-outs stand apart in the source and are kept apart here.

What was measured:
[1] = tested on: Lgr5+ cells; experiment: Lgr5+ Assay (Lgr5+ cell assay in vitro); assay type: cell-based
[2] = cited from earlier work
[3] = Perilymph Conc. listed for agents (Tables 14-25)
[4] = biological target: T1, EZH2 (Homo sapiens, UniProt Q15910); conditions: Table 19; cited from earlier work
T1 sequence (Q15910 whole entry, species assumed): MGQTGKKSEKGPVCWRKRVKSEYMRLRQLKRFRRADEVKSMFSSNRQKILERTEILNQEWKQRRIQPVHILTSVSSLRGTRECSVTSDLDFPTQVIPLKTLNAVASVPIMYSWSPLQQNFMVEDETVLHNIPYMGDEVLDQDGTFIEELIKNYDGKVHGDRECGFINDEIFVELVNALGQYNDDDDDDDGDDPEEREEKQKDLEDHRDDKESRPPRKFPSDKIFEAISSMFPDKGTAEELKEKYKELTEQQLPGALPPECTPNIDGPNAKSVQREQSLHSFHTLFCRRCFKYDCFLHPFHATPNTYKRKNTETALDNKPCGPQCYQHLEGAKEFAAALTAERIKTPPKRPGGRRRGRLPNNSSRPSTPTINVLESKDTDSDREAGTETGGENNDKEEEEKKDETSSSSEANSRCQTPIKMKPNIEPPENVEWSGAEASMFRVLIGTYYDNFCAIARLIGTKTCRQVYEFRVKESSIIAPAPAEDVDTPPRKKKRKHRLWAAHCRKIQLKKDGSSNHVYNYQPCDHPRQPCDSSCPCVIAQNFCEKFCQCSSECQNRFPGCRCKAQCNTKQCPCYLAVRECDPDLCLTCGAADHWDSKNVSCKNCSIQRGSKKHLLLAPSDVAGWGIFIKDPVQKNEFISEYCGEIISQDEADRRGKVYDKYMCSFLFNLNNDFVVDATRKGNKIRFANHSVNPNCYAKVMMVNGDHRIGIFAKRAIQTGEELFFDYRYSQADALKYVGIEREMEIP
T1 sequence (O75530 whole entry partner, species assumed): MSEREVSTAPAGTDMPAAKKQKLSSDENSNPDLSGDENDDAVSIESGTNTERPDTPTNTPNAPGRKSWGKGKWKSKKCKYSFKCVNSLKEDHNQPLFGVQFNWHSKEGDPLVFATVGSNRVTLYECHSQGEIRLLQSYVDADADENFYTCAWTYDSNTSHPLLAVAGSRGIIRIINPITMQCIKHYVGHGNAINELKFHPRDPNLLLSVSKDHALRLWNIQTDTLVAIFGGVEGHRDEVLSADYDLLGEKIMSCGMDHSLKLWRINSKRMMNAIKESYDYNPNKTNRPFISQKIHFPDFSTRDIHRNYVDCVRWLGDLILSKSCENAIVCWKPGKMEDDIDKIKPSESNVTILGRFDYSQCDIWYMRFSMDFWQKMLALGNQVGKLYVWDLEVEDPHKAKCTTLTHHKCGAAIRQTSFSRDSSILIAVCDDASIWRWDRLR
T1 sequence (Q15022 whole entry partner, species assumed): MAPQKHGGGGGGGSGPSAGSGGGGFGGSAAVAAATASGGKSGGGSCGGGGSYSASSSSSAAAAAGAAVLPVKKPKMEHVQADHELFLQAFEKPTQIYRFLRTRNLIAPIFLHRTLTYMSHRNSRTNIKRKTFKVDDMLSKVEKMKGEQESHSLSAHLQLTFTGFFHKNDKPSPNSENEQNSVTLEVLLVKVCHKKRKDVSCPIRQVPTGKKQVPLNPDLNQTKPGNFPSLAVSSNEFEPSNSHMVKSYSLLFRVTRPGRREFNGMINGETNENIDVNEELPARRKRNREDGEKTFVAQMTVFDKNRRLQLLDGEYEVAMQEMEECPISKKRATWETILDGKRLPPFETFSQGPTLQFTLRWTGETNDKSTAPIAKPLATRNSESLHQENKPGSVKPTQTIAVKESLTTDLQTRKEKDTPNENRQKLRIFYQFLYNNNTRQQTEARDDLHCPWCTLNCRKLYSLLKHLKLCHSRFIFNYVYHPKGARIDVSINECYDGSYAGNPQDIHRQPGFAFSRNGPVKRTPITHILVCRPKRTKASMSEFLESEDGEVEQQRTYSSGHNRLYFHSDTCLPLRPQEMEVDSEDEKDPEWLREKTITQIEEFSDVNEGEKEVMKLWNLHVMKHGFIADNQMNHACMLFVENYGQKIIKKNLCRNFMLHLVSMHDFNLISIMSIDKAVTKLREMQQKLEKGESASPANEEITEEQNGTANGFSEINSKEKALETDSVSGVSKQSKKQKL

[5] = biological target: T2, LSD1 (Homo sapiens, UniProt O60341); conditions: Table 18, LSD1; read-out: pKi or IC50 (converted); cited from earlier work
[6] = biological target: gamma secretase; conditions: cited from earlier work; for Lit cell conc: Table 23
[7] = biological target: T1, EZH2; conditions: Table 19, EZH2; read-out: pKi or IC50 (converted); cited from earlier work
[8] = tested on: KDM; conditions: cited from earlier work
[9] = Reconstitution time of lyophilized compositions (Tables E, 28, 35); assay type: physicochemical; conditions: for Reconstitution time (minutes) water + DMSO / Reconstitution time (minutes) with water: lyophilized 16.15% P407 with salt at 533.25 mM; for Reconstitution time (minutes) water + DMSO: reconstituted with Diluent ([…] DMSO in water); for Reconstitution time (minutes) with water: reconstituted with water; for reconstitution time of lyophilized poloxamer with added organic acid salt: poloxamer 16.15%, salt 533.25 mM
Experimental: Diluent 1, 0.85 mL+lyophilized cake. […] Gentle tapping on the exterior of the vessel to help the cake dissolve in the Diluent may be required while keeping it in fridge (or ice bath). To avoid degradation of the composition, minimize stirring and/or vortexing.
Diluent 1, 0.95 mL+Placebo cake: Using a syringe, add the Diluent to the Placebo cake, and rest in a fridge or ice bath (2-8° C.) for 60 minutes or until clear solution is formed. Gentle tapping on the exterior of the vessel to help the cake dissolve in the Diluent may be required while keeping it in fridge (or ice bath). To avoid degradation of the composition, minimize stirring and/or vortexing.
Powder P407 (i.e. non-lyophilized) can be obtained from BASF.
Reconstitution of lyophilized P407 (Placebo) and powder P407 was done using 850 μL Diluent (see above for example preparations of a Diluent) in a vial.
Therefore, to probe the effect of salts other than sodium valproate on reconstitution time, a poloxamer solution at 16.15% concentration either alone or including a salt (e.g. an inorganic salt or organic acid salt) at a concentration of 533.25 mM, was lyophilized. The lyophilized material was then reconstituted using Diluent for reconstitution (6.4% DMSO by wt. % in water) or with water.
Building on the results of Examples 14 to 16, further lyophilized compositions were manufactured and had their reconstitution times evaluated. […] The further lyophilized compositions were made in accordance with Example 10, and reconstituted in accordance with Example 12.

[10] = biological target: T2, LSD1; conditions: Table 18, cited from earlier work
[11] = Table 23, Aβ40, read-out: Lit cell conc IC50, Aβ40
[12] = Table 23, Aβ42, read-out: Lit cell conc IC50, Aβ42
[13] = Table 21, KDM 5, read-out: Select KDM 5

O=C(N/N=C/c1c(O)ccc2ccccc12)c1ccncc1 [AS 8351]
Lgr5+ Assay ([1]; Table 21): 1 to 3 µM | Human In Vivo Conc ([2]; Table 21): 1 to 3 µM | Perilymph Conc ([3]; Table 21): 1 to 3 µM

CCCc1cc(C)[nH]c(=O)c1CNC(=O)c1cc(-c2ccnc(N3CCN(C)CC3)c2)cc2c1cnn2C(C)C [GSK343]
Lit Cell Poten [4]: 174 nM

NO [Hydroxylamine]
IC50 [5]: 121 nM

CC(C)[C@H](O)C(=O)N[C@@H](C)C(=O)N[C@@H]1C(=O)N(C)CCc2ccccc21 [Semagacestat LY 450139]
IC50 ([6]; Table 23, Aβ38, read-out: Lit cell conc IC50, Aβ38): 12 nM | IC50 [6, 11]: 12.1 nM | IC50 [6, 12]: 10.9 nM

COc1ccc(CCN2CCC(Nc3nc4ccccc4n3Cc3ccc(F)cc3)CC2)cc1 [Astemizole]
IC50 [7]: 94000 nM

CCOC(=O)CCNc1cc(N2CCc3ccccc3CC2)nc(-c2ccccn2)n1 [GSK-J4]
IC50 [8, 13]: 170 nM | IC50 ([8]; Table 21, KDM 6, read-out: Select KDM 6): 28 nM

CCc1c(-c2ccccc2C)nc2c(C#N)c[nH]n2c1=O [CPI-4203]
IC50 [8, 13]: 1100 nM

[Ca+2].[Cl-].[Cl-] [Calcium Chloride]
Reconstitution time (minutes) water + DMSO [9]: plugs remain at end of 180 minutes | Reconstitution time (minutes) with water [9]: plugs remain at end of 180 minutes

[Cl-].[Na+] [Sodium Chloride]
Reconstitution time (minutes) water + DMSO [9]: 150 min | Reconstitution time (minutes) with water [9]: 150 min

C/C(=N\NC(=O)c1cccc(S(=O)(=O)N2CCOCC2)c1)c1cc(Cl)ccc1O [SP-2509]
Lgr5+ Assay ([1]; Table 18, result in words): Activity | Literat. Cell [10]: 350 to 650 nM | IC50 [5]: 13 nM

CCOc1ccc2nc3cc(N)ccc3c(N)c2c1 [Ethacridine, reference compound]
Lgr5+ Assay ([1]; Table 22, result in words): Activity

O=S(=O)(NC1CCC(c2cc(F)ccc2F)(S(=O)(=O)c2ccc(Cl)cc2)CC1)C(F)(F)F (stereo not shown) [MRK 560]
Lit cell conc [6]: 0.00065 µM

Cc1coc2c1C(=O)C(=O)c1c-2ccc2c1CC[C@@H](O)[C@]2(C)O [Tanshindiol C]
IC50 [7]: 550 nM

c1ccc([C@@H]2C[C@H]2NC2CCNCC2)cc1 [GSK-LSD1]
Lgr5+ Assay ([1]; Table 18, lower end of concentration range): ≥ 4 nM- | Human Plasma Conc ([2]; Table 18): 1 to 100 nM | Perilymph Conc ([3]; Table 18, lower end of range): ≥ 4 nM- | Perilymph Conc ([3]; Table 18, range or its upper end): ≤ 50 µM

COC(=O)c1cc(CN2CCN(C(=N)N)CC2)cc(C(=O)N2CCN(C(=O)c3ccc(C(=N)N)cc3)CC2)c1 [CBB-1007]
Lgr5+ Assay ([1]; Table 18, result in words): Activity | IC50 ([10]; read-out: Literat. Cell IC50): < 5000 nM | IC50 [5]: 2100 nM

O=C(O)CC[C@H]1CC[C@@](c2cc(F)ccc2F)(S(=O)(=O)c2ccc(Cl)cc2)CC1 [MK-0572]
IC50 ([6]; Table 23, SH-SY5Y cells, read-out: Lit cell conc IC50): 5 nM

Magnesium divalproate [reference compound]
Reconstitution time (minutes) water + DMSO [9]: 14 min | Reconstitution time (minutes) with water [9]: 14 min | reconstitution time of lyophilized poloxamer with added organic acid salt [9]: 420 min

C#CCC(CCCCCC)C(=O)[O-].[Na+] (stereo not shown) [Sodium 2-(prop-2-yn-1-yl) octanoate, reference compound]
reconstitution time of lyophilized poloxamer with added organic acid salt [9]: 420 min

Nc1nccc2c1ncn2C1C=C(CO)C(O)C1O (stereo not shown) [DZNep]
Lgr5+ Assay ([1]; Table 19, result in words): Activity | Lit Cell Poten [4]: 1000 nM

CCN(c1cc(C#CCN2CCOCC2)cc(C(=O)NCc2c(C)cc(C)[nH]c2=O)c1C)[C@H]1CC[C@H](N(C)CCOC)CC1 [EPZ-011989]
Lit Cell Poten [4]: 94 nM

CSc1ccc(/C=C2/C(C)=C(CC(=O)O)c3cc(F)ccc32)cc1 [Suldinac sulfide]
Lit cell conc [6]: 34 µM

NC(=O)[C@@H](CCC(F)(F)F)N(Cc1ccc(-c2ncon2)cc1F)S(=O)(=O)c1ccc(Cl)cc1 [Avagacestat/BMS-708163]
IC50 [6, 11]: 0.3 nM | IC50 [6, 12]: 0.27 nM

C[C@H](c1ccc(F)cc1CCCC(=O)O)N(c1cc(F)ccc1F)S(=O)(=O)c1ccc(Cl)cc1 [BMS 299897]
IC50 [6, 11]: 7.4 nM | IC50 [6, 12]: 7.9 nM

O=C([O-])O.[Na+] [Sodium Bicarbonate]
Reconstitution time (minutes) water + DMSO [9]: undissolved at end of 180 minutes | Reconstitution time (minutes) with water [9]: undissolved at end of 180 minutes

C#CCC(CCCCCC)C(=O)[O-].[Na+] (stereo not drawn) [Sodium 2-(prop-2-yn-l-yl) Octanoate]
Reconstitution time (minutes) water + DMSO [9]: 4 min | Reconstitution time (minutes) with water [9]: 4 min

CCc1c(N(CC)C2CCOCC2)cc2oc(C3CCN(C(C)C)CC3)cc2c1C(=O)NCc1c(C)cc(C)[nH]c1=O [EBI-2511]
IC50 [7]: 4 nM

CCc1cc(Nc2nc(-c3ccc(-n4cnc(C)c4)c(F)c3)cs2)c(C)cc1C [NGP 555]
Lit cell conc [6]: 0.01 µM

COc1nc(-c2cc(C)c(N[C@@H](C)c3ccc(F)cc3)nn2)ccc1-n1cnc(C)c1 [BPN-15606]
IC50 [6, 11]: 17 nM | IC50 [6, 12]: 7 nM

COc1ccc2c(c1)c(CC(=O)O)c(C)n2C(=O)c1ccc(Cl)cc1 [Indomethacin]
Lit cell conc [6]: 25 to 50 µM

O=C(O)C1(c2ccc(-c3ccc(Cl)c(Cl)c3)c(F)c2)CC1 [CHF5074]
IC50 [6, 11]: 18400 nM

[Cl-].[Cl-].[Mg+2] [Magnesium Chloride]
Reconstitution time (minutes) water + DMSO [9]: 180 min | Reconstitution time (minutes) with water [9]: 180 min

C=CC(=O)Nc1cc(Nc2nccc(-c3cn(C)c4ccccc34)n2)c(OC)cc1N(C)CCN(C)C [Osimertinib]
Literat. Cell [10]: 43 nM

COc1oc(=O)c2cc(N)ccc2c1Cl [JLK 6]
Lit cell conc [6]: 30 µM

Clc1ccc(N/N=C(\c2ccccc2)c2ccccn2)nc1 [JIB-04]
IC50 [8, 13]: 220 nM

Cc1cc(C)c(CNC(=O)c2cc(Cl)c3c(c2C)O[C@@](C)([C@H]2CC[C@H](N(C)C)CC2)O3)c(=O)[nH]1 [Valemetostat]
Perilymph Conc ([3]; Table 19): 0.01 to 1 µM

Tanshindiol B
IC50 [7]: 520 nM

C[C@H](NC(=O)CCC(F)(F)F)C(=O)N[C@@H]1C(=O)N(CCO)c2ncccc2-c2ccccc21 [Crenigacestat LY 3039478]
IC50 ([6]; Table 23, in most of the tumor cell lines, read-out: Lit cell conc IC50): ~1 nM

O=S(=O)(N[C@H](CO)C(C(F)(F)F)C(F)(F)F)c1ccc(Cl)s1 [Begacestat/GSI-953]
EC50 ([6]; Table 23, Aβ40, in cells, read-out: Lit cell conc EC50, lowers Aβ40): 14.8 nM | EC50 ([6]; Table 23, Aβ42, in cells, read-out: Lit cell conc EC50, lowers Aβ42): 12.4 nM

COc1c(O)cc2oc3cc(O)c(CC=C(C)C)c(O)c3c(=O)c2c1CC=C(C)C [Alpha-mangostin]
IC50 [5]: 2800 nM

C[C@H](NC(=O)Cc1cc(F)cc(F)c1)C(=O)N[C@H](C(=O)OC(C)(C)C)c1ccccc1 [DAPT]
IC50 ([6]; Table 23, neuronal culture, Aβ42, read-out: Lit cell conc IC50, Aβ42): 200 nM | IC50 ([6]; Table 23, neuronal culture, total Aβ, read-out: Lit cell conc IC50, total Aβ): 115 nM

O=P(O)(O)O [Potassium Phosphate]
Reconstitution time (minutes) water + DMSO [9]: undissolved at end of 180 minutes | Reconstitution time (minutes) with water [9]: undissolved at end of 180 minutes

N[C@H]1CC[C@H](N[C@@H]2C[C@H]2c2ccccc2)CC1 [ORY-1001]
Lgr5+ Assay ([1]; Table 18, result in words): Activity

CC(C(=O)O)c1ccc2c(c1)[nH]c1ccc(Cl)cc12 (stereo not shown) [Carprofen]
Lit cell conc [6]: 76 µM

CS(=O)(=O)c1ccc(-c2cnc(NCc3ccco3)n3cnnc23)cc1 [EED226]
Lgr5+ Assay ([1]; Table 19, result in words): Activity

CC(C)C[C@H](C(=O)O)c1cc(-c2ccc(C(F)(F)F)cc2)cc(-c2ccc(C(F)(F)F)cc2)c1 [JNJ-40418677]
Lit cell conc [6]: 0.18 to 0.2 µM

COc1cc(C)[nH]c(=O)c1CNC(=O)c1c(C)n([C@H](C)C2CCN(CC(F)(F)F)CC2)c2ccccc12 [CPI-1205]
Human In Vivo Conc ([2]; Table 19): 0.025 to 0.25 µM | Perilymph Conc ([3]; Table 19): 0.01 to 1 µM

CC1=C(C(=O)OC2CCCCC2)C(c2ccc([N+](=O)[O-])cc2)C2=C(CC(C)(C)CC2=O)N1 (stereo not shown) [FLI-06]
IC50 [5]: 92 nM

[Cl-].[K+] [Potassium Chloride]
Reconstitution time (minutes) water + DMSO [9]: 168 min | Reconstitution time (minutes) with water [9]: 180 min

C=CCNc1nc(N)c(C(=O)c2ccc(Cl)s2)s1 [IBS008738, reference compound]
Lgr5+ Assay ([1]; Table 22): 1.1 to 30 µM | Perilymph Conc ([3]; Table 22, listed concentration, no test described): 1.1 to 30 µM

CN(C)CCCNc1nc(NC2CCN(Cc3ccccc3)CC2)c2ccccc2n1 [MC2694]
IC50 [5]: 1000 nM
